Test results published in patent publication US4107202A, “Substituted 4,4'-biphenylylene bis(2-thioureylene)di-naphthalenetrisulfonic acids and salts thereof” (American Cyanamid Company, priority 1977, dated 1978).
Where a name gives a salt, the structure may show the parent alone.

What was measured:
[1] = The New England Journal of Medicine, 286, 808-812 (1972); cited from earlier work
complement system = conditions: reported in literature; cited from earlier work
[2] = system: late components of human complement (C3-C9); assay: Test, Code 035 (C3-C9 inhibitor): lysis of EAC 142 by late components of human complement; type: cell-based; parameters: key: Negative; conditions: activity in wells, two-fold serial dilution assay
shunt pathway = assay: Test, Code 036 (C-Shunt inhibitor): lysis of fragile human erythrocytes in autologous serum via the shunt pathway activated by cobra venom factor; type: cell-based; parameters: key: Negative; conditions: activity in wells, two-fold serial dilution assay
whole complement = assay: Complement Level Reduction Test: whole complement in serum of dosed guinea pigs, capillary tube assay; type: in vivo, guinea pig; conditions: 200 mg/kg
Excerpt: An active inhibitor protects C2 from C1 and C4; (ii) Test, Code 035 (C3-C9 inhibitor) -- This test determines the ability of the late components of human complement (C3-C9) to lyse EAC 142 in the presence of appropriate dilutions of the test compound. An active inhibitor protects EAC 142 from lysis by C3-C9; (iii) Test, Code 036 (C-Shunt inhibitor) -- In this test human erythrocytes rendered fragile are lysed in autologous serum via the shunt pathway activated by cobra venom factor in the presence of appropriate dilutions of the test compound. Inhibition of the shunt pathway results in failure of lysis; (iv) Forssman Vasculitis Test -- Here, the well known complement dependent lesion, Forssman vasculitis, is produced in guinea pigs by intradermal injection of rabbit anti-Forssman antiserum. The lesion is measured in terms of diameter, edema and hemorrhage and the extent to which a combined index of these is inhibited by prior intraperitoneal injection of the test compound at 200 mg/kg is then reported, unless otherwise stated; (v) Forssman Shock Test -- Lethal shock is produced in guinea pigs by an i.v. injection of anti-Forssman antiserum and the harmonic mean death time of treated guinea pigs is compared with that of simultaneous controls; (vi) Complement Level Reduction Test -- In this test, the above dosed guinea pigs, or others, are bled for serum and the complement level is determined in undiluted serum by the capillary tube method of U.S. Pat. No. 3,876,376 and compared to undosed control guinea pigs; and (vii) Cap 50 Test -- Here, appropriate amounts of the test compound are added to a pool of guinea pig serum in vitro, after which the undiluted serum capillary tube assay referred to above is run. The concentration of compound inhibiting 50% is reported.
With reference to Table I, guinea pigs weighing about 300 g were dosed intravenously (i.v.) or intraperitoneally (i.p.) with 200 mg/kg of the test compound dissolved in saline and adjusted to pH 7-8. One hour after dosing, the guinea pigs were decapitated, blood was collected and the serum separated. The serum was tested for whole complement using the capillary tube assay. Percent inhibition was calculated by comparison with simultaneous controls. The results appear in Table I together with results of tests, code 026, 035, 036, Cap 50, % inhibition and Forssman shock.

NCCCCCC(=O)O [epsilon-aminocapronic acid]
use in the treatment of hereditary angioneurotic edema [1]: used with success

Nc1ccc2cc(S(=O)(=O)O)cc(O)c2c1N=Nc1ccc(NC(=O)Nc2ccc(N=Nc3c(N)ccc4cc(S(=O)(=O)O)cc(O)c34)c(S(=O)(=O)O)c2)cc1S(=O)(=O)O [chlorazol fast pink, 3,3'-ureylenebis-[6-(2-amino-8-hydroxy-6-sulfo-1-naphthylazo)]benzenesulfonic acid, tetrasodium salt]
complement inhibiting / anticomplementary effect (complement system): anticomplementary effect

heparin
complement inhibiting / anticomplementary effect (complement system): anticomplementary effect

NC[C@H]1CC[C@H](C(=O)O)CC1 [tranexamic acid]
use in the treatment of hereditary angioneurotic edema [1]: used with success

Cc1ccc(C(=O)Nc2ccc(S(=O)(=O)O)c3cc(S(=O)(=O)O)cc(S(=O)(=O)O)c23)cc1NC(=O)c1cccc(NC(=O)Nc2cccc(C(=O)Nc3cc(C(=O)Nc4ccc(S(=O)(=O)O)c5cc(S(=O)(=O)O)cc(S(=O)(=O)O)c45)ccc3C)c2)c1 [Suramin]
complement inhibiting / anticomplementary effect (complement system): competitive inhibitor of the complement system

O=S(=O)(O)c1cc(NC(=S)Nc2ccc(-c3ccc(NC(=S)Nc4cc(S(=O)(=O)O)cc5cc(S(=O)(=O)O)cc(S(=O)(=O)O)c45)cc3S(=O)(=O)O)c(S(=O)(=O)O)c2)c2c(S(=O)(=O)O)cc(S(=O)(=O)O)cc2c1 [8,8'-[(2,2'-Disulfo-4,4'-biphenylylene)bis(2-thioureylene)]di-1,3,6-naphthalenetrisulfonic acid octasodium salt]
C-Late 035 Wells [2]: N
Shunt Inhibition 036 Wells (shunt pathway): N
In Vivo Activity (Guinea Pig) % Inhibition (whole complement; intraperitoneal, 30 min): -55%
In Vivo Activity (Guinea Pig) % Inhibition (whole complement; intraperitoneal, 60 min): -55%
In Vivo Activity (Guinea Pig) % Inhibition (whole complement; intraperitoneal, 120 min): -70%
In Vivo Activity (Guinea Pig) % Inhibition (whole complement; intravenous, 2 min): -92%
In Vivo Activity (Guinea Pig) % Inhibition (whole complement; intravenous, 30 min): -46%
In Vivo Activity (Guinea Pig) % Inhibition (whole complement; intravenous, 120 min): -31%
